Key:
[1] = system: HeLa (human cervical adenocarcinoma); test: MTT proliferation assay, HeLa; type: cell-based; conditions: 72 h treatment
Method: (§1) The effect of the new synthesized compounds was tested on five human tumor cell lines, HeLa (human cervical adenocarcinoma; from ATCC), CaCo-2 (human colorectal adenocarcinoma), HL-60 (acute promyelocytic leukemia), HuT78 (T-cell lymphoma) and THP-1 (acute monocytic leukemia), and on one non-tumor cell line, MRC-5 (human fetal lung fibroblasts). The MRC-5 cells were used between 24 and 26 passages. The cells were cultured in two different types of media: DMEM (Gibco, EU) and RPMI 1640 (Gibco, EU). Both media were supplemented with 2 mM glutamine, fetal bovine serum (10%; heat inactivated) and antibiotics (100 U penicillin and 0.1 mg streptomycin). RPMI 1640 was additionally supplemented with 10 mM HEPES and 1 mM sodium pyruvate. The cells growing in a monolayer were cultured in DMEM, while the cells growing in suspension were cultured in RPMI 1640. The cells were grown in humidified atmosphere under the conditions of 37 °C/5% CO2 gas in the CO2 incubator (IGO 150 CELLlife^TM, JOUAN, Thermo Fisher Scientific, Waltham, MA, USA).
(§2) Growth-inhibitory activity was assessed using a slightly modified procedure based on the National Cancer Institute’s protocol. Briefly, the cells were seeded in 96-well microtiter plates and incubated for 24 h. They were then treated with 10^−7 to 10^−4 M concentrations of the tested compounds for an additional 72 h. After the treatment period, the effects of the tested compounds on the growth rate of the cells were examined using the MTT assay. Absorbance was measured at 595 nm using a microplate reader. […] The selectivity index was calculated according to the following formula: SI=IC50 value of normal cell line/IC50 value of cancer cell line
(§3) The effect of each concentration was analyzed by plotting the logarithm of the concentration of the evaluated compound against the corresponding percentage inhibition value using least squares.

[2] = system: CaCo-2 (human colorectal adenocarcinoma); test: MTT proliferation assay, CaCo-2; type: cell-based; conditions: 72 h treatment
Method: as §1, §2, §3

Hut78 (T-cell lymphoma) = test: MTT proliferation assay, HuT78; type: cell-based, human; conditions: Homo sapiens, HuT78; 72 h treatment, MTT
Method: as §1, §2, §3

[3] = system: MRC-5 (human fetal lung fibroblasts, non-tumor); test: MTT proliferation assay, MRC-5; type: cell-based; conditions: MRC5, 72 h treatment
Method: as §1, §2, §3

[4] = system: HL-60 (acute promyelocytic leukemia); test: MTT proliferation assay, HL-60; type: cell-based; conditions: Homo sapiens, 72 h treatment
Method: as §1, §2, §3

[5] = system: THP-1 (acute monocytic leukemia); test: MTT proliferation assay, THP-1; type: cell-based, human; conditions: Homo sapiens, THP-1; 72 h treatment, MTT
Method: as §1, §2, §3

| Compound | melting point | IC50 [1] | IC50 [2] | IC50 (Hut78 (T-cell lymphoma)) | IC50 [4] | IC50 [5] | IC50 [3] |
| --- | --- | --- | --- | --- | --- | --- | --- |
| O=c1[nH]cc(F)c(=O)[nH]1 [Compound 5-FU, 5-fluorouracil, reference compound] |  |  |  | > 100 µM | > 100 µM | 76.4 µM | 54.1 µM |
| Clc1ccc2[nH]c(-c3ccc(OCc4cn(-c5ccnc6cc(Cl)ccc56)nn4)c(Br)c3)nc2c1 [Compound 10b, 4-(4-{[2-bromo-4-(5-chloro-1H-benzo[d]imidazol-2-yl)phenoxy]methyl}-1H-1,2,3-triazol-1-yl)-7-chloroquinoline] |  | 8.11 µM | 10.9 µM | 6.43 µM | 55.2 µM | 10.6 µM | > 100 µM |
| CCCNC(=N)c1ccc2[nH]c(-c3ccc(OCc4cn(-c5ccnc6cc(Cl)ccc56)nn4)cc3)nc2c1.Cl.Cl.Cl [Compound 9e, 2-(4-{[1-(7-chloroquinolin-4-yl)-1H-1,2,3-triazol-4-yl]methoxy}phenyl)-N-propyl-1H-benzo[d]imidazol-5-carboximidamide trihydrochloride] | 228 to 230 °C | > 100 µM | > 100 µM | 10.2 µM | 98.3 µM | > 100 µM | > 100 µM |
| Cl.Cl.Cl.N=C(N)c1ccc2[nH]c(-c3ccc(OCc4cn(-c5ccnc6cc(Cl)ccc56)nn4)cc3)nc2c1 [Compound 9d, 2-(4-{[1-(7-chloroquinolin-4-yl)-1H-1,2,3-triazol-4-yl]methoxy}phenyl)-1H-benzo[d]imidazol-5-carboximidamide trihydrochloride] | 240 to 242 °C | > 100 µM | > 100 µM | 2.52 µM | > 100 µM | > 100 µM | > 100 µM |
| Cl.Cl.Cl.N=C(N)c1ccc2[nH]c(-c3ccc(OCc4cn(CCNc5ccnc6cc(Cl)ccc56)nn4)c(Br)c3)nc2c1 [Compound 15d, 2-{3-bromo-4-[(1-{2-[(7-chloroquinolin-4-yl)amino]ethyl}-1H-1,2,3-triazol-4-yl)methoxy]phenyl}-1H-benzo[d]imidazol-5-carboximidamide trihydrochloride] | 215 to 217 °C | > 100 µM | > 100 µM | > 100 µM | > 100 µM | > 100 µM | > 100 µM |
| Clc1ccc2[nH]c(-c3ccc(OCc4cn(-c5ccnc6cc(Cl)ccc56)nn4)cc3)nc2c1 [Compound 9b, 7-chloro-4-(4-{[4-(5-chloro-1H-benzo[d]imidazol-2-yl)phenoxy]methyl}-1H-1,2,3-triazol-1-yl)quinoline] | 168 to 170 °C | 94.1 µM | > 100 µM | 92.9 ± 4.3 µM | > 100 µM | > 100 µM | 100 µM |

More lines, main results first:

| melting point | IC50 [1] | IC50 [2] | IC50 (Hut78 (T-cell lymphoma)) | IC50 [4] | IC50 [5] | Compound | IC50 [3] |
| --- | --- | --- | --- | --- | --- | --- | --- |
| 155 to 157 °C | > 100 µM | > 100 µM | 7.88 µM | 11.6 µM | 4.66 µM | Clc1ccc2c(NCCn3cc(COc4ccc(-c5nc6ccccc6[nH]5)cc4Br)nn3)ccnc2c1 [Compound 15a, N-[2-(4-{[4-(1H-benzo[d]imidazol-2-yl)-2-bromophenoxy]methyl}-1H-1,2,3-triazol-1-yl)ethyl]-7-chloroquinolin-4-amine] | > 100 µM |
| 221 to 223 °C | > 100 µM | > 100 µM | > 100 µM | > 100 µM | > 100 µM | Clc1ccc2c(NCCn3cc(COc4ccc(-c5nc6ccccc6[nH]5)cc4)nn3)ccnc2c1 [Compound 14a, N-[2-(4-{[4-(1H-benzo[d]midazole-2-yl)phenoxy]methyl}-1H-1,2,3-triazol-1-yl)ethyl]-7-chloroquinolin-4-amine] | > 100 µM |
